“Also recorded” adds a separate entry of the source. Where no end group is shown, it is not given here.
Legend:
GIPR = molecular target: T1, GIPR (Rattus norvegicus, UniProt P43219); test: GIPR agonism/antagonism in rat INS-1 cells having pGloSensor-22F biosensor; format: cell-based; parameters: dose or concentration left out as unconfirmed
T1 construct: endogenous in cells; host or cells: rat INS-1 insulinoma cells (derivatives with a cAMP-luciferase reporter or pGloSensor-22F)
T1 sequence (P43219 19-455): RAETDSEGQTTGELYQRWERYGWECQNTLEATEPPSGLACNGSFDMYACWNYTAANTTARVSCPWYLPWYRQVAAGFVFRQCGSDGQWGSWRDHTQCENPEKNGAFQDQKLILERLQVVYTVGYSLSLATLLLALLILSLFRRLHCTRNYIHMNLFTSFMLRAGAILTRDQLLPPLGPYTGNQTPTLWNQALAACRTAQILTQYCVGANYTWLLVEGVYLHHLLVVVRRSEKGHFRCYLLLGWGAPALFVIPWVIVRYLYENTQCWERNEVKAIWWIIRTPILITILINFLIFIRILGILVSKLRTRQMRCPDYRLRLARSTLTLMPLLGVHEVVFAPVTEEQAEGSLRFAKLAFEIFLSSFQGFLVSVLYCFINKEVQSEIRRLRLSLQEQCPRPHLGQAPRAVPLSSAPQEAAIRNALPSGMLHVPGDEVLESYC
Experimental: A series of GIP antagonist peptides were evaluated at blocking human GIP (hGIP) agonism and the induction of cAMP. Briefly, rat INS-1 cells having pGloSensor-22F (Promega) were constructed and used to evaluate GIPR agonism and antagonism. […] The conformational change leads to the activation of the luciferase enzyme, thereby allowing detection of activation of GIPR, which produces cAMP upon activation.
To assay for GIPR agonism, rat INS-1 cells having pGloSensor-22F biosensor were treated with increasing concentrations of GIP(Ag). Immediately after the addition, the luminescence of the cells was measured, normalized using the basal luminescence and plotted.
GIPR antagonism was measured as the inhibition of GIP(Ag)-induced activation of the cAMP-luciferase reporter gene in rat INS-1 cells having pGloSensor-22F biosensor. The following GIP derivatives accessed in this assay for GIPR antagonism: GIP(Ant 3-30), GIP(Ant 3-30NH2), (GIP(Ant 3-30) having amidated carboxy terminus), GIP(AntPro3), GIP(AntPro3NH2), GIP(Ant3-30, Pro3) and GIP(Ant3-30, Pro3NH2). Briefly, rat INS-1 cells having pGloSensor-22F were treated with increasing doses of the above various GIP derivatives, mixed with […] GIP(Ag). Immediately after the addition, the luminescence of the cells was measured, normalized using the basal luminescence and plotted.
The GIP(Ag) was re-evaluated across a broader concentration range. Rat INS-1 cells having pGloSensor-22F biosensor were treated with increasing concentrations of GIP(Ag). Immediately after the addition, the luminescence of the cells was measured, normalized using the basal luminescence and plotted.
The GIP(AntPro3) and GIP(AntPro3NH2) were re-evaluated across a broader concentration range. Briefly, rat INS-1 cells having pGloSensor-22F were treated with increasing doses of GIP(AntPro3) and GIP(AntPro3NH2), mixed with […] GIP(Ag). Immediately after the addition, the luminescence of the cells was measured, normalized using the basal luminescence and plotted.

HFD-fed mice [1] = test: glucose tolerance test (GTT) model in HFD-fed mice; format: in vivo; settings: for serum insulin following glucose administration (time course): FIG. 7C; for serum glucose following glucose administration (time course): i.v. treatment, 18 hours fast, 2 g/kg glucose i.v., tirzepatide 1.25 mpk, fusion protein 5 mpk, mRNA 1 mpk, FIG. 7A
Experimental: Cages were changed once, then changed once a week.
The mice administered the above treatment by i.v. injections. The mice were then fasted for 18 hours and administered a dose of 2 g/kg glucose by i.v. injections. Blood samples were drawn by tail clip bleeding at 15, 30 and 60 minutes post dosing and cardiac bleeding was used at 2 hours after glucose injection as end-point.

HFD-fed mice [2] = test: longer-term obesity model in HFD-fed mice; settings: for blood glucose levels compared to the untreated mice: Days 0, 1, 10 and 15, FIG. 8E; for plasma insulin levels on Day 15: FIG. 8C right panel; for average daily food intake compared to the untreated mice: FIG. 8D; for hepatocellular ballooning and steatosis (liver H&E histology): FIG. 8J; for plasma insulin levels on Day 1: between 15 and 120 minutes after treatment, FIG. 8C left panel; for liver weight, PBS control versus treated mice / subcutaneous white adipose tissue (sWAT) weight: day 19 terminal necropsy; for liver weight, PBS control versus treated mice: FIG. 8G; for subcutaneous white adipose tissue (sWAT) weight: FIG. 8H; for tolerability / clinical observations: obesity model, repeated tail vein dosing; for change in body weight: tail vein on Day 0, 4, 7, 10, 14, 18, dulaglutide 1 mpk, tirzepatide 0.5 mpk, fusion protein 5 mpk, mRNA 1 mpk, FIG. 8A
Experimental: Mice (Male C57BL/6) were of approximately 13 weeks of age were housed 4 mice per cage. Following 2 weeks of acclimation, mice were introduced to 60% kcal HFD (Research Diets D12492). Cages were changed once, then changed once a week. Weekly body weights and non-fasted blood glucose were collected.
Mice were injected by tail vein with vehicle or the drugs on Day 0, Day 4, Day 7, Day 10, Day 14, and Day 18. Body weights were measured every 2 days. Change in body weight was calculated and plotted.
Cumulative food intake was measured between day 0 and 3, between day 4 and 7, between day 7 and day 11, and between day 11 and day 14, and represented as average daily food intake. For food consumption, remaining food was weighed on days 3, 8, and 15, and subtracted from the starting weight. This value was then normalized to the number of mice in the cage, and the number of days the mice had access to the food prior to weighing.
Blood glucose levels were measured on Days 0, 1, 10 and 15 and plotted.
On day 19 during terminal necropsy, liver and subcutaneous white adipose tissue were recovered weighed from treated animals.
To further analyze the changes in liver, histopathological analysis was conducted. Briefly, the liver tissue was stained with hematoxylin and eosin (H&E) and evaluated using standard techniques.

GIP receptor (GIPR) = molecular target: T2, GIP receptor (GIPR) (Rattus norvegicus, UniProt P43219); test: cAMP-Glo assay in rat insulinoma INS-1 cells harboring a cAMP-luciferase reporter gene; format: cell-based; settings: 1 hour glucose, then 2 hour incubation with increasing amounts; FIG. 4A
T2 construct: endogenous in cells; host or cells: rat INS-1 insulinoma cells (derivatives with a cAMP-luciferase reporter or pGloSensor-22F)
T2 sequence (P43219 19-455): T1 sequence (P43219 19-455)
Excerpt: Rat insulinoma INS-1 cells harboring a cAMP-luciferase reporter gene were used to study the activation of GIPR. Without wishing to be bound by theory, the activation of GIPR leads to temporary depletion of ATP because of consumption of ATP in cyclization reaction to produce cAMP as well as by phosphorylation by protein kinase A of its substrate. Without wishing to be bound by theory, the temporary depletion of ATP leads to an inhibition of luciferase activity, which needs ATP as a substrate.

[3] = broader concentration range, mixed with GIP(Ag), FIG. 5B
[4] = increasing doses mixed with GIP(Ag), FIG. 5A

Substance	inhibition of GIP(Ag)-induced activation of the cAMP-luciferase reporter gene (GIPR antagonism) (GIPR; [3])	inhibition of GIP(Ag)-induced activation of the cAMP-luciferase reporter gene (GIPR antagonism) (GIPR; [4])	serum insulin following glucose administration (time course) (HFD-fed mice [1]; GTT)	glucose tolerance (HFD-fed mice [1]; GTT, summary of Example 11)	serum glucose following glucose administration (time course) (HFD-fed mice [1])	blood glucose levels compared to the untreated mice (HFD-fed mice [2])	weights of individual mice (HFD-fed mice [2]; FIG. 8B)	plasma insulin levels on Day 15 (HFD-fed mice [2])	average daily food intake compared to the untreated mice (HFD-fed mice [2])	collagen staining (fibrosis), liver sections stained with picrosirius red (HFD-fed mice [2]; FIG. 8I)	hepatocellular ballooning and steatosis (liver H&E histology) (HFD-fed mice [2])	plasma insulin levels on Day 1 (HFD-fed mice [2])	liver weight, PBS control versus treated mice (HFD-fed mice [2])	subcutaneous white adipose tissue (sWAT) weight (HFD-fed mice [2])	tolerability / clinical observations (HFD-fed mice [2])	collagen staining (fibrosis) in comparison with tirzepatide or dulaglutide (HFD-fed mice [2]; picrosirius red, FIG. 8I)	change in body weight (HFD-fed mice [2])	inhibition of luciferase (activation of GIPR) (GIP receptor (GIPR))	hepatocellular ballooning and steatosis (liver H&E histology) compared to untreated animals (HFD-fed mice [2]; higher magnifications, FIG. 8K)
GIP(AntPro3): GIP Antagonist (amino acids 1-42, having a E3P substitution); SEQ ID NO: 97 (YAPGTFISDYSIAMDKIHQQDFVNWLLAQKGKKNDWKHNITQ)	dose-dependent inhibition of GIP(Ag)-induced activation of the cAMP-luciferase reporter gene	more potent inhibition of GIP agonist signaling than the others tested; also recorded: maximal level of a dose-dependent inhibition of GIP(Ag)-induced activation	–	–	–	–	–	–	–	–	–	–	–	–	–	–	–	–	–
GIP(AntPro3NH2): GIP antagonist peptide, GIP(AntPro3) presumably with amidated carboxy terminus (YAPGTFISDYSIAMDKIHQQDFVNWLLAQKGKKNDWKHNITQ; also: presumably amidated C-terminus)	dose-dependent inhibition of GIP(Ag)-induced activation of the cAMP-luciferase reporter gene	more potent inhibition of GIP agonist signaling than the others tested; also recorded: maximal level of a dose-dependent inhibition of GIP(Ag)-induced activation	–	–	–	–	–	–	–	–	–	–	–	–	–	–	–	–	–
GLP-1-Fc-GIP(AntPro3): chimeric protein: GLP-1 fused to GIP antagonist (amino acids 1-42, E3P) via IgG1 Fc domain; SEQ ID NO: 95	–	–	rapid induction of insulin	improved glucose tolerance	much smaller increase in serum glucose	decrease in blood glucose	induced weight loss	significant decrease in the levels of insulin	decrease in food intake	decrease in collagen staining	decrease in hepatocellular ballooning and steatosis	rapid decrease in insulin levels	the livers of control mice that received only PBS were much heavier compared to the mice receiving treatments	decreased	well tolerated and no overt toxicities were noted	greater decrease in collagen staining compared to the livers from mice treated with tirzepatide or dulaglutide	progressive weight loss	–	–
dulaglutide [reference compound]	–	–	–	–	–	decrease in blood glucose	–	significant decrease in the levels of insulin	decrease in food intake	decrease in collagen staining	decrease in hepatocellular ballooning and steatosis	rapid decrease in insulin levels	the livers of control mice that received only PBS were much heavier compared to the mice receiving treatments	decreased	well tolerated and no overt toxicities were noted	–	progressive weight loss	–	–
tirzepatide [reference compound]	–	–	rapid induction of insulin	–	much smaller increase in serum glucose	decrease in blood glucose	–	significant decrease in the levels of insulin	decrease in food intake	decrease in collagen staining	decrease in hepatocellular ballooning and steatosis	–	the livers of control mice that received only PBS were much heavier compared to the mice receiving treatments	decreased	–	–	progressive weight loss	dose-dependent and saturable inhibition of luciferase with similar potency	significant decrease in hepatocellular ballooning and steatosis

Source: patent publication US12145975B2, “Fusion proteins for the treatment of cardiometabolic diseases” (Shattuck Labs, Inc., priority 2022, dated 2024)
